The structures appear in SMILES notation. pIC50: −log10 of the molar value. Where “and” joins values, the source holds several entries; their conditions need not be identical. Equal values may be shown once. Where only a bound is given, the exact number is not on record here.

The results in this text go back to patent publication US20230365554A1, “SUBSTITUTED PYRROLO-PYRIDINONE DERIVATIVES AND THERAPEUTIC USES THEREOF” (The Broad Institute, Inc., priority 2020, published 2023).

The target in one test is human CSNK1A1 (Homo sapiens (Human), UniProt P48729). Nature of the test: CSNK1A1 Assay 2 (ADP-Glo, 1 μM ATP). It is filed as biochemical. Conditions: median, Table 2, read-out: CSNK1A1 Assay 2 IC50 [mol/l] (median). Summed up: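 GST-tagged full-length human CSNK1A1 from insect cells, preincubated 15 min with compound, then reacted 30 min at 22° C with 1 μM ATP and 30 μM biotinylated peptide substrate in pH 7.5 HEPES buffer. ADP measured by ADP-Glo luminescence; normalised to no-inhibitor (0%) and no-enzyme (100%) controls.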
Chain of human CSNK1A1 (P48729 whole entry): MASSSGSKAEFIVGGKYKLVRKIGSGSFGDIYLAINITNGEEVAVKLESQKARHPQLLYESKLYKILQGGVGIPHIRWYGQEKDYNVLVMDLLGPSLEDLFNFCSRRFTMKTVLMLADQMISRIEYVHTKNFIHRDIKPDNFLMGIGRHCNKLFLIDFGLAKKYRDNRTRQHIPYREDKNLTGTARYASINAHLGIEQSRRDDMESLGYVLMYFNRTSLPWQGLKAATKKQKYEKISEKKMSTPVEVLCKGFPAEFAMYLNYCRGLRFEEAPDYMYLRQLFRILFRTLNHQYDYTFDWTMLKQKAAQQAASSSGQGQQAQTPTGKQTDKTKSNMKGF

Test [1] concerns the target wild-type Epidermal Growth Factor Receptor (EGFR) (Homo sapiens (Human), UniProt P00533). Nature of the test: WT-EGFR kinase assay (TR-FRET, 2 mM ATP). It is filed as biochemical. Conditions: median or individual measurements, Table 3, read-out: EGFR Wildtyp-2mM ATP IC50 [mol/l] (median). An excerpt: Inhibitory activity of compounds of the present invention against wild-type Epidermal Growth Factor Receptor (EGFR) was quantified employing the TR-FRET based EGFR assay as described in the following paragraphs.
Recombinant fusion protein of N-terminal Glutathion-S-Transferase (GST) and a fragment of human EGFR (amino acids R669 to A1210), expressed in Sf9 insect cells and purified via affinity chromatography using Glutathion Sepharose as described above, was used as kinase. As substrate for the kinase reaction the biotinylated peptide biotin-Ahx-AEEEEYFELVAKKK (C-terminus in amide form) was used which can be purchased e.g. form the company Biosynthan GmbH (Berlin-Buch, Germany).
For the assay 50 nl of a 100 fold concentrated solution of the test compound in DMSO was pipetted into either a black low volume 384 well microtiter plate or a black 1536 well microtiter plate (both Greiner Bio-One, Frickenhausen, Germany), 2 μL of a solution of EGFR in aqueous assay buffer [50 mM Hepes pH 7.0, 10 mM MgCl2, 1 mM dithiothreitol, 0.5 mM EGTA, 0.3 mM activated sodium ortho-vanadate, 0.005% (w/v) bovine serum albumin, 0.005% (v/v) Tween-20] were added and the mixture was incubated for 15 min at 22° C. to allow pre-binding of the test compounds to the enzyme before the start of the kinase reaction. Then the kinase reaction was started by the addition of 3 μL of a solution of adenosine-tri-phosphate (ATP, 3.33 mM=>final conc. in the 5 μL assay volume is 2 mM) and substrate (1.67 μM=>final conc. in the 5 μL assay volume is 1 μM) in assay buffer and the resulting mixture was incubated for a reaction time of 30 min at 22° C. The concentration of EGFR was adjusted depending of the activity of the enzyme lot and was chosen appropriate to have the assay in the linear range, typical concentration was 7.6 pg/μL. The reaction was stopped by the addition of 3 μL of a solution of HTRF detection reagents (83.3 nM streptavidine-XL665 [Cisbio Bioassays, Codolet, France] and 1.67 nM PT66-Tb-Cryptate, a terbium-cryptate labelled anti-phospho-tyrosine antibody from Cisbio Bioassays [instead of the PT66-Tb-cryptate PT66-Eu-Chelate from Perkin Elmer can also be used]) in an aqueous EDTA-solution (133.3 mM EDTA, 0.2% (w/v) bovine serum albumin in 50 mM HEPES pH 7.5).
The resulting mixture was incubated 1 h at 22° C. to allow the binding of the biotinylated phosphorylated peptide to the streptavidine-XL665 and the PT66-Tb-Cryptate. Subsequently the amount of phosphorylated substrate was evaluated by measurement of the resonance energy transfer from the PT66-Tb-Cryptate to the streptavidine-XL665. Therefore, the fluorescence emissions at 620 nm and 665 nm after excitation at 337 nm were measured in a HTRF reader, e.g. a Pherastar (BMG Labtechnologies, Offenburg, Germany) or a Viewlux (Perkin-Elmer). The ratio of the emissions at 665 nm and at […] was taken as the measure for the amount of phosphorylated substrate. The data were normalised (enzyme reaction without inhibitor=0% inhibition, all other assay components but no enzyme=100% inhibition).
For orientation: TR-FRET usually uses a lanthanide donor and a delayed reading to cut background.

Chain of wild-type Epidermal Growth Factor Receptor (EGFR) (P00533 669-1210): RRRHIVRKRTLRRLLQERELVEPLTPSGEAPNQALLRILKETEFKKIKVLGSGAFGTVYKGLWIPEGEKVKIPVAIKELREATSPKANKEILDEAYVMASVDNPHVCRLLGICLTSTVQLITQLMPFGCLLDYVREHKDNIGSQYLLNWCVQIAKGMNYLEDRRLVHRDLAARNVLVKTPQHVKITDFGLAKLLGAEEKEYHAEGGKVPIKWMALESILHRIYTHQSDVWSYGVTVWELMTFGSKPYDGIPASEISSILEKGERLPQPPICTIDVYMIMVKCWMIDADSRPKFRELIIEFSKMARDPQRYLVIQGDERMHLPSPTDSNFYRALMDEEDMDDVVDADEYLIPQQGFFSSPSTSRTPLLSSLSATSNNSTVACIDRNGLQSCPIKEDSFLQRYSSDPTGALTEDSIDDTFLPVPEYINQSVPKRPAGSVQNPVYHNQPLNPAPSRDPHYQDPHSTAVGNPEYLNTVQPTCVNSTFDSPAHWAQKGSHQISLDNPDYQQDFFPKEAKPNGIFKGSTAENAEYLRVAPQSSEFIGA

Regarding `O=C1N[C@@H]2CCC[C@@H]2c2[nH]c(-c3ccnc(NC(=O)C(CC(F)F)c4ccc(F)cc4)c3)c(Nc3ccccc3)c21` (single isomer, unassigned; (-)) [Example 23, (−)-(2R or S)—N-{4-[cis-3-anilino-4-oxo-1,4,5,5a,6,7,8,8a-octahydrocyclopenta[b]pyrrolo[2,3-d]pyridin-2-yl]pyridin-2-yl}-4,4-difluoro-2-(4-fluorophenyl)butanamide], the pIC50 was 7.62 on human CSNK1A1 and 4.89 in test [1].

With `O=C1N[C@@H]2CCC[C@@H]2c2[nH]c(-c3ccnc(NC(=O)C(CC(F)F)c4ccc(F)cc4)c3)c(Nc3ccccc3)c21` (single isomer, unassigned; (-)) [Example 24, (−)-(2R or S)—N-{4-[cis-3-anilino-4-oxo-1,4,5,5a,6,7,8,8a-octahydrocyclopenta[b]pyrrolo[2,3-d]pyridin-2-yl]pyridin-2-yl}-4,4-difluoro-2-(4-fluorophenyl)butanamide], the results for the pIC50 (on human CSNK1A1; in test [1]) were 7.52 and 6.51, respectively.

Take `Cn1cc(CC2CC2)c2[nH]c(-c3ccnc(NC(=O)Cc4ccc(F)cc4)c3)c(Nc3ccccc3)c2c1=O` [Example 32, N-{4-[3-anilino-7-(cyclopropylmethyl)-5-methyl-4-oxo-4,5-dihydro-1H-pyrrolo[3,2-c]pyridin-2-yl]pyridin-2-yl}-2-(4-fluorophenyl)acetamide]: the pIC50 was 7.57 at human CSNK1A1 and 6.07 in test [1].

As for `CN1CC(CC(F)(F)F)c2[nH]c(-c3ccnc(NC(=O)C(CC(F)F)c4ccc(F)cc4)c3)c(Nc3ccccc3)c2C1=O` (centres unmarked) [Example 17, N-{4-[3-anilino-5-methyl-4-oxo-7-(2,2,2-trifluoroethyl)-4,5,6,7-tetrahydro-1H-pyrrolo[3,2-c]pyridin-2-yl]pyridin-2-yl}-4,4-difluoro-2-(4-fluorophenyl)butanamide], the pIC50 on human CSNK1A1 is 7.77; in test [1] it was < 4.70 and < 5.24 and 5.43 and 5.49.

Regarding `CN1CC(CC2CC2)c2[nH]c(-c3ccnc(NC(=O)Cc4ccc(F)cc4)c3)c(Nc3ccccc3)c2C1=O` (racemic) [Example 18, N-{4-[3-anilino-7-(cyclopropylmethyl)-5-methyl-4-oxo-4,5,6,7-tetrahydro-1H-pyrrolo[3,2-c]pyridin-2-yl]pyridin-2-yl}-2-(4-fluorophenyl)acetamide], the pIC50 on human CSNK1A1 was 8.18; in test [1] it was 5.37.

Regarding `CN1CC(CC(F)(F)F)c2[nH]c(-c3ccnc(NC(=O)C(CC(F)F)c4ccc(F)cc4)c3)c(Nc3cscn3)c2C1=O` (single isomer, unassigned) [Example 54, (2R or S)-4,4-difluoro-2-(4-fluorophenyl)-N-{4-[(7R or S)-5-methyl-4-oxo-3-[(1,3-thiazol-4-yl)amino]-7-(2,2,2-trifluoroethyl)-4,5,6,7-tetrahydro-1H-pyrrolo[3,2-c]pyridin-2-yl]pyridin-2-yl}butanamide], the values for the pIC50 (at human CSNK1A1; in test [1]) were 8.52 and under 4.70, respectively.

For `CN1CC(CC(F)(F)F)c2[nH]c(-c3ccnc(NC(=O)Cc4ccc(F)cc4)c3)c(Nc3ccccc3)c2C1=O` (single isomer, unassigned) [Example 15, N-{4-[3-anilino-5-methyl-4-oxo-7-(2,2,2-trifluoroethyl)-4,5,6,7-tetrahydro-1H-pyrrolo[3,2-c]pyridin-2-yl]pyridin-2-yl}-2-(4-fluorophenyl)acetamide], the pIC50 was 8.03 at human CSNK1A1 and 5.54 in test [1].

In the case of `CN1CC(CC(F)F)c2[nH]c(-c3ccnc(NC(=O)Cc4ccc(F)cc4)c3)c(Nc3ccccc3)c2C1=O` (racemic) [Example 42, N-{4-[3-anilino-7-(2,2-difluoroethyl)-5-methyl-4-oxo-4,5,6,7-tetrahydro-1H-pyrrolo[3,2-c]pyridin-2-yl]pyridin-2-yl}-2-(4-fluorophenyl)acetamide], the results for the pIC50 (on human CSNK1A1; in test [1]) were 8.74 and 5.96, respectively.

Take `CN1CC(CC2CC2)c2[nH]c(-c3ccnc(NC(=O)Cc4ccc(F)cc4)c3)c(Nc3ccccc3)c2C1=O` (single isomer, unassigned) [Example 20, N-{4-[3-anilino-7-(cyclopropylmethyl)-5-methyl-4-oxo-4,5,6,7-tetrahydro-1H-pyrrolo[3,2-c]pyridin-2-yl]pyridin-2-yl}-2-(4-fluorophenyl)acetamide]: the pIC50 at human CSNK1A1 was 7.77; in test [1], 5.10.

Regarding `CN1CC(CC(F)(F)F)c2[nH]c(-c3ccnc(NC(=O)Cc4ccc(F)cc4)c3)c(Nc3ccccc3)c2C1=O` (single isomer, unassigned) [Example 16, N-{4-[3-anilino-5-methyl-4-oxo-7-(2,2,2-trifluoroethyl)-4,5,6,7-tetrahydro-1H-pyrrolo[3,2-c]pyridin-2-yl]pyridin-2-yl}-2-(4-fluorophenyl)acetamide], the values for the pIC50 (at human CSNK1A1; in test [1]) were 8.37 and 5.74, respectively.

For `O=C1N[C@@H]2CCC[C@@H]2c2[nH]c(-c3ccnc(NC(=O)C(CC(F)F)c4ccc(F)cc4)c3)c(Nc3ccccc3)c21` (mixture of isomers) [Example 21, (2RS)—N-{4-[cis-3-anilino-4-oxo-1,4,5,5a,6,7,8,8a-octahydrocyclopenta[b]pyrrolo[2,3-d]pyridin-2-yl]pyridin-2-yl}-4,4-difluoro-2-(4-fluorophenyl)butanamide], the pIC50 at human CSNK1A1 was 7.96; in test [1] it was 5.35.

As to `CCC1CNC(=O)c2c1[nH]c(-c1ccnc(NC(=O)C(CC(F)F)c3ccc(F)cc3)c1)c2Nc1ccccc1` (centres unmarked) [Example 4, N-{4-[3-anilino-7-ethyl-4-oxo-4,5,6,7-tetrahydro-1H-pyrrolo[3,2-c]pyridin-2-yl]pyridin-2-yl}-4,4-difluoro-2-(4-fluorophenyl)butanamide], the pIC50 on human CSNK1A1 is 7.80; in test [1], 5.92.

In the case of `CN1CC(CC2CC2)c2[nH]c(-c3ccnc(NC(=O)Cc4ccc(F)cc4)c3)c(Nc3cscn3)c2C1=O` (single isomer, unassigned) [Example 50, N-{4-[(7R or S)-7-(cyclopropylmethyl)-5-methyl-4-oxo-3-(1,3-thiazol-4-ylamino)-4,5,6,7-tetrahydro-1H-pyrrolo[3,2-c]pyridin-2-yl]pyridin-2-yl}-2-(4-fluorophenyl)acetamide], the pIC50 on human CSNK1A1 is 8.29; in test [1], under 4.70.

Consider `CN1CC(CC(F)(F)F)c2[nH]c(-c3ccnc(NC(=O)Cc4ccc(F)cc4)c3)c(Nc3cscn3)c2C1=O` (single isomer, unassigned) [Example 47, 2-(4-fluorophenyl)-N-{4-[(7R or S)-5-methyl-4-oxo-3-(1,3-thiazol-4-ylamino)-7-(2,2,2-trifluoroethyl)-4,5,6,7-tetrahydro-1H-pyrrolo[3,2-c]pyridin-2-yl]pyridin-2-yl}acetamide], for which the pIC50 was 8.47 at human CSNK1A1 and under 4.70 in test [1].

On to `Cn1cc(CC(F)(F)F)c2[nH]c(-c3ccnc(NC(=O)C(CC(F)F)c4ccc(F)cc4)c3)c(Nc3ccccc3)c2c1=O` (single isomer, unassigned) [Example 36, N-{4-[3-anilino-5-methyl-4-oxo-7-(2,2,2-trifluoroethyl)-4,5-dihydro-1H-pyrrolo[3,2-c]pyridin-2-yl]pyridin-2-yl}-4,4-difluoro-2-(4-fluorophenyl)butanamide], for which the results for the pIC50 (at human CSNK1A1; in test [1]) were 8.21 and 5.96, respectively.

As for `Cc1cn(C)c(=O)c2c(Nc3ccccc3)c(-c3ccnc(NC(=O)C(C)c4ccc(F)cc4)c3)[nH]c12` (single isomer, unassigned) [Example 40, N-[4-(3-anilino-5,7-dimethyl-4-oxo-4,5-dihydro-1H-pyrrolo[3,2-c]pyridin-2-yl)pyridin-2-yl]-2-(4-fluorophenyl)propanamide], the pIC50 was 7.82 at human CSNK1A1 and 4.77 in test [1].
